Data as given in patent publication US9908897B2, “Spirocyclic derivatives” (CHRONOS THERAPEUTICS LIMITED, priority 2014, dated 2018).

Experiments:
[1] = biological target: human dopamine transporter (DAT) (Homo sapiens (Human), UniProt Q01959); experiment: Scintillation Proximity Assay (SPA) competition binding, human DAT; conditions: recombinant hDAT-CHO membranes, [3H]WIN-35,428
From the text: (§1) Measure of Affinity to the Human Transporters DAT, NET and SERT
In the context of the present invention pKi values (corresponding to the antilogarithm of Ki) are used instead of Ki; pKi are only estimated to be accurate to about 0.3 log unit.
(§2) Scintillation Proximity Assay (SPA) for Human DAT, NET and SERT Binding
(§3) Chinese Hamster Ovary (CHO) cells stably expressing either human DAT (hDAT-CHO) or human NET (hNET-CHO) or human SERT (hSERT-CHO) are used for the membrane preparations for radioligand binding assays using Scintillation proximity Assay (SPA) technique. Each cell line is cultured independently in F-12K Nutrient Mixture containing 10% of Fetal Bovine Serum (FBS) supplemented with 450 μg/ml G-418. When cells are at 70-80% of confluence 3 mM Na Butyrate was added to the cell culture medium. After 24 h of incubation, the culture medium was removed and the cells detached with Versene (DAT) or by scraping (NET and SERT). Cell suspension is centrifuged at 41,000 g for 10 minutes at 4° C. The resultant pellets are re-suspended in 15 volumes of Ice-cold buffer (20 mM HEPES, 145 mM NaCl, 5 mM KCl, pH7.3), homogenized using an Ultra Turrax homogeniser and centrifuged as before. The resultant membrane pellets are re-suspended in up to 15 volume of ice-cold buffer, incubated for 20 minutes at 37-C and centrifuged as before at 41,000 g. The final membrane pellets are re-suspended into 5-10 volumes of ice-cold buffer, dispensed into 0.5 ml aliquots and stored at −80° C. until use. Protein concentration for each preparation is determined using Bio-Rad Protein Assay kit.
(§4) The affinity of the compounds of the invention to the human DAT or NET or SERT transporters is assessed by using the [^3H]WIN-35,428 or [^3H]nisoxetine or [^3H]citalopram binding assays in recombinant human DAT, NET and SERT membranes with the SPA technology. The final assay volume is 50 μL in 384 well plates.
(§5) Briefly, 0.5 μL of test compound in neat DMSO or 0.5 μL of DMSO for total binding (TB) or 0.5 μL of indatraline 1 mM (10 μM final concentration) for non specific binding (NSB) are added to the assay plate. 50 μL of the SPA mixture is added to each well, containing: 30 μg/mL or 10 μg/mL or 25 μg/mL DAT, NET, SERT membranes, respectively; 5 nM [^3H]WIN-35,428 or 5 nM [^3H]nisoxetine or 1 nM [^3H]citalopram, for DAT, NET, SERT assay, respectively; 2.5 mg/mL or 1 mg/mL or 4 mg/mL WGA-PVT SPA beads (PerkinElmer RPNQ0001, for DAT, NET, SERT assay, respectively. All components are added to Assay Buffer (20 mM HEPES pH 7.4, 145 mM NaCl, 5 mM KCl, 0.01% Pluronic F-127). 0.02% BSA was used for DAT binding only. Plates are sealed with Topseal A and centrifuged 1 min, 800 rpm. Plates are loaded into a 1450 Microbeta TriLux (Perkin-Elmer) plate reader and the radioactivity counted after at least 4 hrs or overnight incubation at room temperature. Curve fitting and IC50 estimations are performed using a four parameter model in XLfit (IDBS, Guilford, UK) for Microdoft Excel (Microsoft, Redmond, Wash.).

[2] = biological target: human norepinephrine transporter (NET) (Homo sapiens (Human), UniProt P23975); experiment: Scintillation Proximity Assay (SPA) competition binding, human NET; conditions: recombinant hNET-CHO membranes, [3H]nisoxetine
From the text: as §1
(§6) Affinity is expressed in terms of inhibition constant (Ki) of the compounds of the invention for DAT, NET and SERT, and it is typically calculated from the IC50 values obtained in competition experiments using Cheng and Prusoff equation (Cheng and Prusoff, Biochem. Pharmacol. 22:3099, 1973). In the context of the present invention pKi values (corresponding to the antilogarithm of Ki) are used instead of Ki; pKi are only estimated to be accurate to about 0.3 log unit.
as §2, §3, §4, §5

[3] = biological target: human serotonin transporter (SERT) (Homo sapiens (Human), UniProt P31645); experiment: Scintillation Proximity Assay (SPA) competition binding, human SERT; conditions: recombinant hSERT-CHO membranes, [3H]citalopram
From the text: as §1, §6, §2, §3, §4, §5

human serotonin transporter (SERT), sequence (P31645 whole entry): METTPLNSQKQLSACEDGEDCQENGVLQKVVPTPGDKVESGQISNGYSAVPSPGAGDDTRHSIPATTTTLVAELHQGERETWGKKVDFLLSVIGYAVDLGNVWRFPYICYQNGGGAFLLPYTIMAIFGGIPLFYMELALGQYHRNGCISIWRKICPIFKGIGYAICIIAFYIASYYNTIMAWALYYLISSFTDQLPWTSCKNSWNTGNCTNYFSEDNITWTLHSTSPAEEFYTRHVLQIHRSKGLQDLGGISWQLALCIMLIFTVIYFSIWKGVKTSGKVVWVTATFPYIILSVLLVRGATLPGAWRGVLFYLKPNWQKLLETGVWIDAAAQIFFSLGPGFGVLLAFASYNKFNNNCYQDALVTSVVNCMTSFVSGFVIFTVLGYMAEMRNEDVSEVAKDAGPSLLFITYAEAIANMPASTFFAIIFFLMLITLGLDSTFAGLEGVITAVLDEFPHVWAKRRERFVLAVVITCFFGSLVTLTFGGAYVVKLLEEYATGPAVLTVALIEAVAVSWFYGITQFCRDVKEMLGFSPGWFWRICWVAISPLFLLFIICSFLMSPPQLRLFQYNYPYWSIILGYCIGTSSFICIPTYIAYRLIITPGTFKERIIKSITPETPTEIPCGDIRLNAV
human dopamine transporter (DAT), sequence (Q01959 whole entry): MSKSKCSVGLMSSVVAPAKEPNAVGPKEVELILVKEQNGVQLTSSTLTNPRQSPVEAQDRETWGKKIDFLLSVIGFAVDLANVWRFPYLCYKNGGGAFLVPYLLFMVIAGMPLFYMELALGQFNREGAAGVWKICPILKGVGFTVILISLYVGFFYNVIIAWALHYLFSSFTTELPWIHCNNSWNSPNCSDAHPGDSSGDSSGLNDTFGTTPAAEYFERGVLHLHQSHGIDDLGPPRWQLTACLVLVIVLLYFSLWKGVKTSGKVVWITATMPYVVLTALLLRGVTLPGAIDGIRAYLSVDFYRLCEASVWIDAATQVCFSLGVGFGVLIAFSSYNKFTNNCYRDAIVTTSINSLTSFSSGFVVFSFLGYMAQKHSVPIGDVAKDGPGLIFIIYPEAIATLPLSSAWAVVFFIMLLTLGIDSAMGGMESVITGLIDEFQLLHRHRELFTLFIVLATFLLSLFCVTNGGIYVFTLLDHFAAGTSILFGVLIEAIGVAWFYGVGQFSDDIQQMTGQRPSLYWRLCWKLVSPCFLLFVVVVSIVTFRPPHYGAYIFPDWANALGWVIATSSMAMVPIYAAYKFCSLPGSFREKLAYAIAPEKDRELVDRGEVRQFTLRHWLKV
human norepinephrine transporter (NET), sequence (P23975 whole entry): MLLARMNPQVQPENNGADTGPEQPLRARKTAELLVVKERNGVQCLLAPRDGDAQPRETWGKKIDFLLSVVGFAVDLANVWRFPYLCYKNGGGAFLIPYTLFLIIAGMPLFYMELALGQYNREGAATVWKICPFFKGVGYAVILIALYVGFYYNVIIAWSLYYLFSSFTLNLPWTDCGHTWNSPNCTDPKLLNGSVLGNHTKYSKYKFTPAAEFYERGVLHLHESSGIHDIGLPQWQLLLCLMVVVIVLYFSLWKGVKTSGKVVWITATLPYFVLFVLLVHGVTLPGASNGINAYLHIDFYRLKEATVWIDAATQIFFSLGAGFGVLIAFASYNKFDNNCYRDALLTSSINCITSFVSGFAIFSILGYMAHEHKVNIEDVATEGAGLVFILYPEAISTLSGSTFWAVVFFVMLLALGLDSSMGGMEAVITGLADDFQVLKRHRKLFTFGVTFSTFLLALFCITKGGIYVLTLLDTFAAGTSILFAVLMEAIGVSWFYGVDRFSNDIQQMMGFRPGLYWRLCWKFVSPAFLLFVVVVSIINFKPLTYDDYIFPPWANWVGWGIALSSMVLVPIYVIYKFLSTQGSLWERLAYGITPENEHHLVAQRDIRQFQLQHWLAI

## Cl.Fc1cccc(Oc2cc(F)c(F)cc2N2CCC3(CC2)CNCC(F)(F)O3)c1 [Example 69, 9-[4,5-difluoro-2-(3-fluorophenoxy)phenyl]-2,2-difluoro-1-oxa-4,9-diazaspiro[5.5]undecane hydrochloride]
[1]
  pIC50 DAT: 5.97
[2]
  pIC50 NET: 5.06
[3]
  IC50: > 100 µM

## O=C1CNCC2(CCN(c3nc(Oc4cccc(F)c4)cc(C(F)(F)F)n3)CC2)N1 [Example 73, 9-[4-(3-fluorophenoxy)-6-(trifluoromethyl)pyrimidin-2-yl]-1,4,9-triazaspiro[5.5]undecan-2-one]
[1]
  pIC50 DAT: 6.32
[2]
  pIC50 NET: 4.82
[3]
  IC50: > 100 µM

## CN1CCNCC12CCN(c1nc(Oc3cccc(F)c3)cc(C(F)(F)F)n1)CC2 [Example 74, 9-[4-(3-fluorophenoxy)-6-(trifluoromethyl)pyrimidin-2-yl]-1-methyl-1,4,9-triazaspiro[5.5]undecane]
[1]
  pIC50 DAT: 8.38
[2]
  pIC50 NET: 6.42
[3]
  pIC50 SERT: 4.95

## Fc1cccc(Oc2cc(C(F)(F)F)nc(N3CCC4(CC3)CNCCN4)n2)c1 [Example 75, 9-[4-(3-fluorophenoxy)-6-(trifluoromethyl)pyrimidin-2-yl]-1,4,9-triazaspiro[5.5]undecane]
[1]
  pIC50 DAT: 8.88
[2]
  pIC50 NET: 6.54
[3]
  pIC50 SERT: 5.18

## CN1CCCNC(=O)C12CCN(c1nc(Oc3cccc(F)c3)cc(C(F)(F)F)n1)CC2 [Example 76, 3-[4-(3-fluorophenoxy)-6-(trifluoromethyl)pyrimidin-2-yl]-7-methyl-3,7,11-triazaspiro[5.6]dodecan-12-one]
[1]
  pIC50 DAT: 7.28
[2]
  pIC50 NET: 4.88
[3]
  IC50: > 100 µM

## CN1CCCNCC12CCN(c1nc(Oc3cccc(F)c3)cc(C(F)(F)F)n1)CC2 [Example 77, 3-[4-(3-fluorophenoxy)-6-(trifluoromethyl)pyrimidin-2-yl]-7-methyl-3,7,11-triazaspiro[5.6]dodecane]
[1]
  pIC50 DAT: 8.08
[2]
  pIC50 NET: 6.33
[3]
  pIC50 SERT: 5.30

## Cl.Fc1cccc(Oc2cc(C(F)(F)F)nc(N3CCC4(CC3)COCCN4)n2)c1 [Example 78, 9-[4-(3-fluorophenoxy)-6-(trifluoromethyl)pyrimidin-2-yl]-4-oxa-1,9-diazaspiro[5.5]undecane hydrochloride]
[1]
  pIC50 DAT: 7.94
[2]
  pIC50 NET: 7.32
[3]
  pIC50 SERT: 5.17

## Fc1cccc(Oc2cc(F)c(F)cc2N2CCCC3(CCNCC3)C2)c1 [Example 80, 2-[4,5-difluoro-2-(3-fluorophenoxy)phenyl]-2,9-diazaspiro[5.5]undecane]
[1]
  pIC50 DAT: 6.64
[2]
  pIC50 NET: 5.84
[3]
  pIC50 SERT: 6.49

## Fc1cccc(Oc2cc(F)c(F)cc2N2CCCC3(CCCNC3)C2)c1 (stereo not drawn) [Example 81, 2-[4,5-difluoro-2-(3-fluorophenoxy)phenyl]-2,8-diazaspiro[5.5]undecane]
[1]
  pIC50 DAT: 7.18
[2]
  pIC50 NET: 6.25
[3]
  pIC50 SERT: 6.71

## Fc1cccc(Oc2cc(F)c(F)cc2N2CCC3(CNCCC34OCCO4)C2)c1 (stereo not drawn) [Example 85, 8-[4,5-difluoro-2-(3-fluorophenoxy)phenyl]-1,4-dioxa-8,12-diazadispiro[4.0.4^6.4^5]tetradecane]
[1]
  pIC50 DAT: 6.62
[2]
  pIC50 NET: 5.81
[3]
  pIC50 SERT: 6.35

## O=C1CCNCC12CCN(c1cc(F)c(F)cc1Oc1cccc(F)c1)C2 (stereo not drawn) [Example 86, 2-[4,5-difluoro-2-(3-fluorophenoxy)phenyl]-2,7-diazaspiro[4.5]decan-10-one]
[1]
  pIC50 DAT: 6.87
[2]
  pIC50 NET: 5.81
[3]
  pIC50 SERT: 5.65

## Cl.O=C1CCNCC12CCN(c1nc(Oc3cccc(F)c3)cc(C(F)(F)F)n1)C2 (stereo not drawn) [Example 88, 2-[4-(3-fluorophenoxy)-6-(trifluoromethyl)pyrimidin-2-yl]-2,7-diazaspiro[4.5]decan-10-one hydrochloride]
[1]
  pIC50 DAT: 8.15
[2]
  pIC50 NET: 6.55
[3]
  pIC50 SERT: 4.48
